These results are taken from patent US7230023B2, “Water-soluble triazole fungicide” (Sankyo Company, Limited, priority 2001, dated 2007).

≈ marks a conversion by molar mass, not a printed value.

The subject of series [1] is Candida albicans ATCC 64550. Put plainly: Antifungal activity against Candida, MIC by broth microdilution. The class given is cell-based. Particulars: ATCC64550, RPMI1640 pH 7.0, 35° C., 24-72 hours, at least 80% growth inhibition, read-out: MIC values C.a. (1). How it is done:
(§1) The antifungal activities of compound A were assessed according to the minimum inhibitory concentrations (MICs) which were measured by the methods described below:
(§2) Determination of antifungal activity against Candida: The MICs were determined by the broth microdilution method. Test compound was dissolved in dimethyl sulfoxide (DMSO). Serial two-fold dilution of the test compound was performed with DMSO, and then the final dilution was performed with RPMI1640 medium (product of Dainippon Pharmaceutical Co., Ltd.) which was buffered to pH 7.0 with 0.165M 3-(morpholino)propanesulfonic acid (MOPS). […] Colonies of the test fungi were suspended in physiological saline followed by adjustment to 5.0×10^2 to 2.5×10^3 cells/ml with RPMI1640 medium which was buffered to pH 7.0 with 0.165M MOPS. 100 μl of the fungal suspension and 100 μl of each diluted test compound solution were mixed in each well of microtitre plates, before incubating at 35° C. for 24-72 hours. […] The MICs were defined as the lowest compound concentrations causing at least 80% growth inhibition when compared with the control.

Series [2] relates to Candida albicans TIMM 3164. The series is described as above. The class given is cell-based. Particulars: TIMM3164, RPMI1640 pH 7.0, 35° C., 24-72 hours, at least 80% growth inhibition, read-out: MIC values C.a. (2). How it is done: as §1, §2
For series [3], the system named is Candida albicans TIMM 3165. The description is as above. To be noted: TIMM3165, RPMI1640 pH 7.0, 35° C., 24-72 hours, at least 80% growth inhibition, read-out: MIC values C.a. (3). The class given is cell-based. How it is done: as §1, §2
Series [4] relates to Cryptococcus neoformans TIMM 0362. Put plainly: Antifungal activity against Cryptococcus neoformans, MIC by broth microdilution. To be noted: TIMM0362, yeast nitrogen base medium pH 7.0, 35° C., 48-72 hours, at least 50% growth inhibition, absorbance at 485 nm, read-out: MIC values C.n. It is filed as cell-based. How it is done:
as §1
Determination of antifungal activity against Cryptococcus neoformans: MICs were determined by the broth microdilution method. Test compound was dissolved in DMSO. Serial two-fold dilution of the test compound was performed with DMSO, and the final dilution was performed with yeast nitrogen base medium (product of Difco Laboratories) buffered to pH 7.0 with 0.165M MOPS. […] Colonies of the test fungi were suspended in physiological saline followed by adjustment to 5.0×10^3 to 2.5×10^4 cells/ml with yeast nitrogen base medium buffered to pH 7.0 with 0.165M MOPS. 100 μl of the fungal suspension and 100 μl of each diluted test compound solution were mixed in each well of microtitre plates, before incubating at 35° C. for 48-72 hours. […] The MICs were defined as the lowest compound concentrations causing at least 50% growth inhibition when compared with the control as measured by light absorbance at 485 nm.

In series [5] the test system is Aspergillus fumigatus SANK 10569. Put plainly: Antifungal activity against Aspergillus, MIC by broth microdilution. It is filed as cell-based. To be noted: SANK10569, RPMI1640 pH 7.0, 30° C., 24-72 hours, at least 80% growth inhibition, read-out: MIC values A.f. How it is done: as §1
as §2, with “Aspergillus:” for “Candida: The”, “DMSO.” for “dimethyl sulfoxide (DMSO).”, “MOPS.” for “3-(morpholino)propanesulfonic acid (MOPS).”, “about 1.0×10^4” for “5.0×10^2 to 2.5×10^3”, “30°” for “35°”
(Dilution methods test growth across graded concentrations, often in twofold steps.)

Series [6] relates to human liver microsome preparation. Put plainly: Test to confirm formation of active substance: incubation with human liver microsome preparation, HPLC. It is filed as in vitro ADME. Particulars: human liver microsome preparation 0.5 mg protein/ml, initial concentration 1 μM, 37° C. How it is done:
The test compound was dissolved in a human liver microsome preparation (0.5 mg protein/ml, GENTEST Corporation) at an intial concentration of 1 μM and the mixture was incubated at 37° C.
A small aliquot of the sample was collected at certain time intervals, and the rate of persistence of the original compound and the rate of formation of compound A, the active substance with the chemical structure shown below, were determined by HPLC.
The results of incubating the compound of Example 5 (the disodium salt of example number 5-16) with the human liver microsome preparation are shown in FIG. 1.
Background: Liver microsomes are a subcellular fraction often used to study metabolism.

In the case of `C[C@@H](S[C@H]1CO[C@H](/C=C/C=C/c2ccc(C#N)cc2F)OC1)[C@](O)(Cn1cncn1)c1ccc(F)cc1F` [Compound A], the minimal inhibitory concentration (MIC) in series [1] was 0.25 µg/mL (≈ 0.461 µM); in series [2], no more than 0.008 µg/mL; in series [3] it was 0.063 µg/mL (≈ 0.116 µM); in series [4], no more than 0.008 µg/mL; in series [5], 0.031 µg/mL (≈ 0.0571 µM).

With `C[C@@H](S[C@H]1CO[C@H](/C=C/C=C/c2ccc(C#N)cc2F)OC1)[C@@](Cn1cncn1)(OC(=O)c1cc(C#N)ccc1COP(=O)([O-])[O-])c1ccc(F)cc1F.[Na+].[Na+]` [Example 5, Disodium 4-cyano-2-[[(1R,2R)-2-[[trans-2-[(1E,3E)-4-(4-cyano-2-fluorophenyl)-1,3-butadienyl]-1,3-dioxan-5-yl]thio]-1-(2,4-difluorophenyl)-1-[(1H-1,2,4-triazol-1-yl)methyl]propoxy]carbonyl]benzyl phosphate], in series [6], the “rate of persistence of the original compound” value is given as “diminished immediately after the incubation started”. In addition, the “rate of formation of compound A (active substance)” value in series [6] (after incubation for 30 min) is recorded as “completely converted to compound A”.

In general, MIC refers to the smallest concentration in the dilution series that meets the test's criterion for growth inhibition.
